# Earlier results as cited in patent US20240189229A1, “LIQUID PHARMACEUTICAL COMPOSITIONS OF BACLOFEN FOR ORAL ADMINISTRATION” (ANI Pharmaceuticals, Inc., priority 2022, published 2024).
# Like-named read-outs stand apart in the source and are kept apart here.
structure (smiles),measurement,setting,value
"NCC(CC(=O)O)c1ccc(Cl)cc1 (centres unmarked) [Baclofen, 4-amino-3-(4-chlorophenyl)-butanoic acid]",Concentration of baclofen obtained by dissolving,aqueous solution of 0.1N HCl (Ahuja 1985),greater than 20 mg/mL
same,Concentration of baclofen obtained by dissolving,aqueous solution of 0.1N NaOH (Ahuja 1985),greater than 20 mg/mL
same,Solubility in chloroform,chloroform,insoluble
same,Solubility in methanol,methanol,very slightly soluble
same,Solubility in water,water,slightly soluble
